Results published in patent US20060154236A1, “Computer-assisted analysis” (priority 2004, published 2006).
Read-outs that look alike come from different tables or passages of the source. Residues, ends and D or L forms follow the SMILES beside them. *: point of attachment. Cbz = O=C(OCc1ccccc1)*

How the values were obtained:
[1] = tested on: HeLa (human cancer) cells; assay: Hierarchical clustering of compound profiles by titration-invariant similarity score (TISS); format: cell-based
Excerpt: When comparing drug mechanism, changes in specificity, and thus phenotype, are relevant but changes in affinity, and thus PEC, are not. […] We developed a titration-invariant similarity score (TISS) to allow comparison between dose-response profiles independent of starting dose.
Titration-invariant similarity score (TISS) for comparing descriptor and compound vectors. We developed a “titration-invariant” similarity score (TISS) to assess the similarity of compounds independent of the starting point of their titration series. The TISS between two compounds is calculated in three steps: (1) we define the notion of a titration sub-series for each compound to account for different possible starting concentrations (FIGS. 35 and 36B); (2) we define a correlation for pairs of these sub-series (FIG. 36B); (3) we define a similarity measure derived from the strongest correlation over a determined range of these sub-series (FIG. 36B).
(1) For each compound c, the complete set of z-scores across all descriptors and titrations defines a DxT-dimensional vector: Xc=(zc,l,l, . . . , zc,D,l, . . . , zc,l,T, . . . , zc,D,T), where D is the number of descriptors (=93) and T is the number of titrations (=13). In order to allow comparisons of compounds with different titration starting points, we define titration sub-series as follows: Xc(s)=(zc,l,l, . . . , zc,D,l, . . . , zc,l,T−s, . . . , zc,D,T−s) and Xc(−s)=(zc,l,s, . . . , zc,D,s, . . . , zc,l,T, . . . , zc,D,T). Intuitively, by truncating starting or ending titrations, these definitions allow us to “shift” the starting point for the titration series.
(2) For all compound vectors Xi and Xj, we define their s-correlation: xij(s)=<Xi, Xj>(s)=<Xi(s), Xj(−s)>/(∥Xi(s)∥ ∥Xj(−s)∥)
(we use the standard notation <A, B>=ΣiAiBi and ∥A∥^2=<A,A>). Thus, <Xi, Xj>(0) measures the standard correlation of vectors Xi and Xj, while <Xi, Xj>(1) drops the first titration for compound Xj and the last for Xi before measuring their correlation. For each s, we built a 200×200 such correlation matrix X(s)=(xij(s)) using all of the compounds from each of the two replicates.
(3) Given a range −S≦s≦S, we wish to look for the value of s that gives the highest correlation between two vectors.
Clustering compound and descriptor vectors. We performed standard hierarchical clustering of replicate-averaged compound (FIG. 33) or descriptor (FIG. 39) vectors using the pdist and linkage functions in Matlab. pdist was defined by the TISS for each pair of vectors. […] Compound 50 was not present in all datasets and so was also excluded.

[2] = tested on: HeLa (human cancer) cells; assay: Cytological dose-response profiling by automated fluorescence microscopy (KS statistic z-scores, 93 descriptors); format: cell-based; conditions: for response of compound profile (heat plot): 13-point titration
Description: The known drug set was chosen to cover common mechanisms of toxicity or therapeutic action in cancer and other diseases, and to include several groups with a common target (macromolecule or pathway) but unrelated structures. We analyzed thirteen 3-fold dilutions of each drug, covering a final concentration range on cells from micromolar to picomolar. (Table 3 and Materials & Methods). HeLa (human cancer) cells were cultured in 384-well plates to near confluence, treated with drugs for 20 hrs, fixed, and stained with fluorescent probes for various cell components and processes. We chose 11 distinct probes that covered a range of cell biology, multiplexing a DNA stain and two antibodies per well (the probe sets are: (SC35, anillin), (α-tubulin, actin), (phospho-p38, phospho-ERK), (p53, cFos), (phospho-CREB, calmodulin)). Using automated fluorescence microscopy, we collected images of up to ˜8000 cells from each well. 26 wells on each plate were treated only with DMSO to generate a control population. The experiment was performed twice in parallel to provide a replicate dataset. Image segmentation procedures were used to automatically identify nuclei and nuclear organelles, and cytoplasmic regions were approximated as an annulus surrounding each identified nucleus (FIG. 31A). For each cell, region, and probe, a set of descriptors was measured. These included measures of size, shape, and intensity, as well as ratios of intensities between regions (93 descriptors total, Table S3).
For profiling studies, it is useful to reduce each population of descriptor values to a single number. […] We devised a measure based on the Kolmogorov-Smirnov (KS) statistic, allowing nonparametric comparison of experimental and control distributions from the same plate (FIGS. 31B and 35). […] In particular, the relationship between z-score and the original physical measure may be non-linear.
Cell culture. 20 hours before compound addition, Hela cells grown in […] dishes were trypsinized, resuspended in DMEM supplemented with 10% FCS and 10 ug/mL penicillin/streptomycin, and plated in 384-well plates at an initial density of 3,000 cells per well, 40 uL per well. Compounds were purchased from Sigma (St. Louis, MO), Calbiochem (EMD Biosciences, San Diego, Calif.) and Tocris (Elliksville, MO) and are listed in Table 2. Compound stocks were prepared in DMSO and then arrayed on 384-well plates in 16 consecutive 1:3 serial dilutions in DMSO as outlined in Table 3. The highest and two lowest dilutions (rows A, 0 and P) were not used for subsequent analysis as the wells due to persistent edge effects, leaving us with a series of 13 dilutions. Each stock was diluted 16-fold in warmed culture medium, and 8 μl of this solution was added to the plated cells, resulting in a 96-fold final dilution. All conditions were performed in duplicate in separate plates. Cells were incubated at 37° C. for 20 hours, then fixed in 3% formaldehyde in PBS. All liquid handling was performed using a programmed TekBench (TekCel, Hopkinton, Mass.).
Markers. Five sets of markers were stained by standard immunofluorescence methods in this study.

p53 and cFos = assay: Single-cell analysis of nuclear p53 vs cFos intensity; format: cell-based, human; conditions: HeLa, 20 hrs, FIG. 34
Excerpt: FIG. 34 is a single-cell analysis showing differing patterns of dose-dependent p53 and cFos responses to different drugs. A. Scatter plot of average nuclear p53 intensity vs. average cFos intensity in a typical control well and representative image. The bright cells at the top of the image are in mitosis. B. Dose-dependent increases in response to MG132 shown in heat maps are correlated in scatter plots and images (orange nuclei). C. Dose-dependent increases in response to camptothecin shown in heat maps are anti-correlated in scatter plots and images. The black (cFos) and green (p53) heat map values for the highest dose reflect the contribution of apoptotic cells with negligible p53 and cFos nuclear staining.
Extensions of cytological profiling to reflect dependencies among descriptors will allow more sophisticated analysis of drug responses at a systems level. For example, both p53 and cFos, a transcription factor involved in MAP-kinase signalling, are involved in cell stress responses, but the interrelationship of the p53 and MAP-kinase pathways is poorly understood (B. Kaina, Biochem Pharmacol 66:1547 (Oct. 15, 2003); incorporated herein by reference). […]

transcription = assay: Preliminary in vitro transcription experiments; format: biochemical
[3] = unsupervised hierarchical clustering of the 61 responsive compounds
[4] = HeLa cells, 20 hrs, thirteen 3-fold dilutions, Y = profile response above signal threshold

Compound | clustering of compound profile by TISS (FIG. 33) [1, 3] | Used in clustering (FIG. 33) [2, 4] | response of compound profile (heat plot) ([2]; HeLa, 20 hrs) | also measured
CC[C@H](C)[C@H]1NC(=O)[C@@H](NC(=O)[C@@H](CC(C)C)N(C)C(=O)[C@@H]2CCCN2C(=O)C(C)O)[C@@H](C)OC(=O)[C@H](Cc2ccc(OC)cc2)N(C)C(=O)[C@@H]2CCCN2C(=O)[C@H](CC(C)C)NC(=O)[C@@H](C)C(=O)[C@H](C(C)C)OC(=O)C[C@@H]1O (stereo partly shown) [Compound 98, Didemnin B] | clustered with ribosome inhibitors | Y | – | –
CC(C)C[C@@H](C=O)NC(=O)[C@H](CC(C)C)NC(=O)[C@H](CC(C)C)NC(=O)OCc1ccccc1 [Compound 38, MG132] (Cbz-Leu-Leu-Leu-aldehyde) | – | Y | – | relation of dose-dependent p53 and cFos responses in single cells (p53 and cFos): increased correlated induction
O=C(CCCCCN1C(=O)c2cccc3cccc(c23)C1=O)NO [Compound 97, Scriptaid] | clustered closely with their unblinded counterparts and compounds of similar reported mechanism | Y | significant responses | –
CC[C@H]1CN2CCc3cc(OC)c(OC)cc3[C@@H]2C[C@@H]1C[C@H]1NCCc2cc(OC)c(OC)cc21 [Compound 96, Emetine] | clustered closely with their unblinded counterparts and compounds of similar reported mechanism | Y | significant responses | –
Cn1cnc2c(NCc3ccccc3)nc(NCCO)nc21 [Compound 42, Olomucine] | did cluster | Y | – | –
CCCCCc1ccc(-c2ccc(/C=C/C(N)=O)cc2)nc1 [Compound 100, Concentramide] | difficult to interpret | Y | strong responses | –
CC(C)[C@H](CO)Nc1nc(Nc2cccc(Cl)c2)c2ncn(C(C)C)c2n1 [Compound 46, Purvalanol A] | did cluster | Y | – | –
Austocystin [Compound 99] | clusters with transcription and translation inhibitors | Y | strong responses | inhibition of transcription in vitro (transcription): inhibits transcription in vitro
CC[C@H](CO)Nc1nc(NCc2ccccc2)c2ncn(C(C)C)c2n1 [Compound 49, Roscovitine] | – | – | – | clustering of compound profile by TISS (FIG. 33) [1]: did cluster; Used in clustering (FIG. 33) [2]: Y
CC[C@@]1(O)C(=O)OCc2c1cc1n(c2=O)Cc2cc3ccccc3nc2-1 [Compound 10, Camptothecin] | – | Y | – | anillin nuclear level ([2]; HeLa, 20 hrs, G2 arrested state): marked nuclear accumulation; total DNA content / cell cycle response ([2]; HeLa, 20 hrs, as drug concentration increases): arrest with S/G2 DNA content; apoptosis ([2]; HeLa, 20 hrs, at the highest concentrations): widely induced; p53 induction ([2]; HeLa, 20 hrs, concentrations sufficient to promote G2 arrest): much less so; p53 induction ([2]; HeLa, 20 hrs, high concentrations): strongly induced; p53 response (z-score heat plot) ([2]; HeLa, 20 hrs, low doses, FIG. 31C): statistically significant responses; relation of dose-dependent p53 and cFos responses in single cells (p53 and cFos): anti-correlated
C=C1[C@@H](O)[C@@H]2O[C@]3(CC[C@H](/C=C/[C@@H](C)[C@@H]4CC(C)=C[C@@]5(O[C@H](C[C@@](C)(O)C(=O)O)CC[C@H]5O)O4)O3)CC[C@H]2O[C@@H]1[C@@H](O)C[C@H](C)[C@H]1O[C@@]2(CCCCO2)CC[C@H]1C [Compound 41, Okadaic acid] | – | Y | – | –
CN(C)CCCN1c2ccccc2Sc2ccc(Cl)cc21 [Compound 62, Chloropromazine] | – | Y | – | –
CN[C@@H]1C[C@H]2O[C@@](C)([C@@H]1OC)n1c3ccccc3c3c4c(c5c6ccccc6n2c5c31)C(=O)NC4 [Compound 51, Staurosporine] | – | Y | – | –
NC(=O)NO [Compound 94, Hydroxyurea] | clustered closely with their unblinded counterparts and compounds of similar reported mechanism | Y | significant responses | –
